In patent US10544185B2 (Suzhou Zelgen Biopharmaceuticals Co., Ltd., priority 2015, dated 2020):

Target: T1, farnesoid X receptor (FXR) (Homo sapiens, UniProt Q96RI1)
T1 sequence (Q96RI1 1-486): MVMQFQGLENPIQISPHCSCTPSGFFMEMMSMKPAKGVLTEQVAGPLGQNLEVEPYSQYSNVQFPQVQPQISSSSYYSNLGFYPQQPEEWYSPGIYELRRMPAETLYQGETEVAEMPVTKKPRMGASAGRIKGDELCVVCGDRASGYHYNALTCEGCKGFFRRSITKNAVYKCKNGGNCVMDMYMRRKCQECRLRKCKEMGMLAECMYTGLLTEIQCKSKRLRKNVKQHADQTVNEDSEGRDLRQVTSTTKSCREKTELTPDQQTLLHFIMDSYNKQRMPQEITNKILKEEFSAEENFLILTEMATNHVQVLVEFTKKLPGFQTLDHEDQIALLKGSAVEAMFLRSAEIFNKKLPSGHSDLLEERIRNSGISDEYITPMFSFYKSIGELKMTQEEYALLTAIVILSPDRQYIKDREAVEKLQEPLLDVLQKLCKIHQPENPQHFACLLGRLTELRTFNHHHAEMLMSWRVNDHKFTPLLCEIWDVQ
Experiment: Recruitment Coactivator Assay (AlphaScreen) for FXR activation
Format: biochemical
Settings: read-out: activating activity (EC50) for FXR
Experimental: The farnesoid X receptor (FXR) activation of the compounds of the present invention is determined by Recruitment Coactivator Assay, i.e. AlphaScreen. Specific in vitro pharmacodynamic evaluation experimental program has referred to the literature J Pharmacol Exp Ther 350:56-68, July 2014.

EC50: < 200 nM
Substance: 3α, 7[…]-Dihydroxy-6α-(Ethyl-d4)-5β-Cholan-24-Acid [Example 7]
